Where no end group is shown, it is not given here. The star is where a group is joined. Biotin = O=C1N[C@H]2[C@H](CS[C@H]2CCCCC(=O)*)N1
Tests used:
Estrogen Receptor α = target: T1, Estrogen Receptor α (Homo sapiens, UniProt P03372); test: Binding kinetics (BLI) to Estrogen Receptor α; conditions: for koff: read-out: K off, binding to Estrogen Receptor α; for kon: read-out: K on, binding to Estrogen Receptor α
T1 sequence (P03372 1-595): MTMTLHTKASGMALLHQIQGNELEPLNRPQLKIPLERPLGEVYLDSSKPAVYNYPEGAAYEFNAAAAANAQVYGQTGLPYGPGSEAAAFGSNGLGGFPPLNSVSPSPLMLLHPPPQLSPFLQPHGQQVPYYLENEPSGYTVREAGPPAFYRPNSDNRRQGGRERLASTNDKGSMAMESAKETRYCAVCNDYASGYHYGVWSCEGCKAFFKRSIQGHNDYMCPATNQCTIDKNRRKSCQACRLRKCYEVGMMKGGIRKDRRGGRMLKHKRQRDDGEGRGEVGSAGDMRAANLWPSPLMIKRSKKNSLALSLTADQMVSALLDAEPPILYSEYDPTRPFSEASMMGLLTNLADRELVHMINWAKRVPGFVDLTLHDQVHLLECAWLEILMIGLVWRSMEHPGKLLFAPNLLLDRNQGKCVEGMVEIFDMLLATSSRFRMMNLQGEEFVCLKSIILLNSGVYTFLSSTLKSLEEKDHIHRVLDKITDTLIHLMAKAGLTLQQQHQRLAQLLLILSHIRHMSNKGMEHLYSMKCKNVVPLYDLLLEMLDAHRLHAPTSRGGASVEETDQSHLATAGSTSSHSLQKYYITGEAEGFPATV

MCF7 cells [1] = test: Cell count after 7 day treatment with and without estradiol; assay type: cell-based; conditions: MCF7, 20 μM, 7 days, in the presence of estrogen
Procedure: (§1) MCF7 cells were switched to phenol free DMEM (cat #, 11054-020, Life Technologies), with 10% charcoal stripped FBS (cat #A33821-01, Life Technologies), 24 hrs prior to plating. After the starvation period, the cells were plated onto mm plates at cells/plate and allowed to adhere overnight. The next day cells were dosed with 20 μM of CAPER peptides along with a DMSO and TAT only controls with and without estradiol (E2) (cat #, Sigma). Cells were pre-treated with the peptide 4 hrs before the E2 was added. Cells were dosed daily for 7 days. At the end of the 7 day dosing period, floating cells were collected and adherent cells were trypsinized and counted via a hemocytometer

ERα = target: T2, ERα (Homo sapiens, UniProt P03372); test: Inhibition of full-length recombinant CAPER binding to ERα
T2 sequence (P03372 1-595): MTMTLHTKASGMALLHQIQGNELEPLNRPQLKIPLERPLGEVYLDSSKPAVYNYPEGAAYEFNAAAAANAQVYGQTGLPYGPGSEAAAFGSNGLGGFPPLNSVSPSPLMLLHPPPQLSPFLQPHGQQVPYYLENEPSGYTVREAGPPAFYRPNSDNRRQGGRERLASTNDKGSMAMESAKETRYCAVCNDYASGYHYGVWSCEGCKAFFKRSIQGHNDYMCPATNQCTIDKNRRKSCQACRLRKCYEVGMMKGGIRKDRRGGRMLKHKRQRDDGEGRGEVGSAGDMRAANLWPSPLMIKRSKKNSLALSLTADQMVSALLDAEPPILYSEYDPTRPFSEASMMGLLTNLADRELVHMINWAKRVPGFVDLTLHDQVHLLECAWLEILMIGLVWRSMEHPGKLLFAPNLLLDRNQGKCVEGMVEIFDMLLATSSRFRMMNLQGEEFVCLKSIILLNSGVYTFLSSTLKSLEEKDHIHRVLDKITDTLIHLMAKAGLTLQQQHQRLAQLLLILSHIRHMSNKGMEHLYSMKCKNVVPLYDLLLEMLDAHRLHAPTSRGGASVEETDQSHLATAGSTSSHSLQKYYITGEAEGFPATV

BT549 cells [2] = test: Cell cycle assay, nocodazole synchronized cells; assay type: cell-based; conditions: BT549, 20 μM, 7 days
Procedure: (§2) MDA-MB-231 and BT549 cells were synchronized using nocodazole (cat #Sigma-Aldrich) for 24 hours. The floating cells were then aspirated off and the plate was rinsed with media to collect the loosely attached cells (G2/M fraction). The cells were then plated as described above. A fraction of the treated cells was processed for cell cycle to confirm synchronization. Cells were then treated for 7 days as described above, at the end of the 7 day dosing period, floating cells were collected and attached cells were washed 1× with PBS and then trypsinized with 0.05% trypsin. Cells were collected and combined with the floating cells. Cells were counted and diluted according to the Muse Cell Cycle Kit (cat #MCH100106, EMD Millipore) instructions and samples were then read on the Muse Cell Analyzer.

MDA-MB-231 cells [3] = test: Cell cycle assay, nocodazole synchronized cells; assay type: cell-based; conditions: MDA-MB-231, 20 μM, 7 days
Procedure: as §2

MCF7 cells [4] = test: Apoptosis assays (Muse Caspase 3/7 and Annexin V); assay type: cell-based; conditions: MCF7, 20 μM, 7 days, in the presence of estrogen
Procedure: as §1
(§3) Apoptosis was evaluated using both a Muse Caspase 3/7 kit (cat #MCH100108, EMD Millipore) and Muse Annexin V kit (Millipore cat #). Cells were treated for 7 days as described elsewhere herein, at the end of the 7 day dosing period, floating cells were collected and attached cells were washed 1× with PBS and then trypsinized with 0.05% trypsin. Cells were collected and combined with the floating cells. Cells were then counted and diluted to 20,000 cells/mL. For the caspase assay, 50 μL of cells were then incubated with the Muse Caspase 3/7 reagent at 37° C. for 30 min. After incubation 5 μL of 7-ADD dye was added and incubated for 5 min at room temperature. Cells were then analyzed on the Muse Cell Analyzer (Millipore). For the Annexin V assay, 100 μL of cells was then added to 100 μL of Annexin V reagent for 30 min at room temperature. Cells were then analyzed on the Muse Cell Analyzer (Millipore).

MCF10A cells [5] = test: Apoptosis assay (Annexin V); assay type: cell-based; conditions: 20 μM, 7 days, vs DMSO and TAT controls
Procedure: as §3

BT549 cells [6] = test: Cell count after 7 day treatment; assay type: cell-based; conditions: BT549, 20 μM daily, 7 days, vs DMSO and TAT controls
Procedure: (§4) MDA-MB-231, BT549, and MCF10A cells were plated onto 10 cm plates at 50,000 cells per plate, 100,000 cells per plate and 25,000 cells, respectively. The cells were allowed to adhere overnight, the next day cells were with 20 μM of CAPER peptides along with a DMSO and TAT only controls. Cells were dosed daily for 7 days. At the end of the 7 day dosing period, floating cells were collected and adherent cells were trypsinized and counted via a hemocytometer.

MCF10A cells [7] = test: Cell count after 7 day treatment; assay type: cell-based; conditions: MCF10A non-tumorigenic, 20 μM daily, 7 days, vs DMSO and TAT controls
Procedure: as §4

MDA-MB-231 cells [8] = test: Cell count after 7 day treatment; assay type: cell-based; conditions: MDA-MB-231, 20 μM daily, 7 days, vs DMSO and TAT controls
Procedure: as §4

BT549 cells [9] = test: Apoptosis assays (Muse Caspase 3/7 and Annexin V); assay type: cell-based; conditions: BT549, 20 μM, 7 days
Procedure: as §3

MDA-MB-231 cells [10] = test: Apoptosis assays (Muse Caspase 3/7 and Annexin V); assay type: cell-based; conditions: MDA-MB-231, 20 μM, 7 days
Procedure: as §3

c-Jun [11] = target: T3, c-Jun (Homo sapiens, UniProt P05412); test: Binding kinetics by biolayer interferometry (BLI), Octet HTX; conditions: 1:1 model; for koff: read-out: K off, binding to c-Jun; for kon: read-out: K on, binding to c-Jun
T3 construct: purchased Abcam
T3 sequence (P05412 whole entry): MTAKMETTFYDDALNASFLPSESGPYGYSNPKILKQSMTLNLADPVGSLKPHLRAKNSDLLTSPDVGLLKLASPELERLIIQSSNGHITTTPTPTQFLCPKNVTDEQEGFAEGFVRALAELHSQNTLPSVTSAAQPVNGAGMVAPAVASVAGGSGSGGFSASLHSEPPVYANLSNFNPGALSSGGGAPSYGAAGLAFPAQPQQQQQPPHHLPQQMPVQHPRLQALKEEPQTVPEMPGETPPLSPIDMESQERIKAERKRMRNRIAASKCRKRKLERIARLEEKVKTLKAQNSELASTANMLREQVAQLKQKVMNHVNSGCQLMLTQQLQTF
Procedure: The binding kinetics of the peptides and full-length recombinant CAPER (R&D Systems, Minneapolis, MN) with the c-Jun (Abcam, Cambridge, MA) were determined using biolayer interferometry (BLI) on the Octet HTX system (Pall ForteBio, Fremont, CA). Amine Reactive 2nd Generation biosensors (cat #18-5092, Pall ForteBio) were activated with 1-Ethyl-3-[3-dimethylaminopropyl] carbodiimide hydrochloride and N-hydroxysulfosuccinimide (EDC/NHS) (Amine Coupling Kit II, Cat #ACK-001-025, Sierra Sensors, Billerica, MA) and conjugated with an anti-his tag antibody. The reaction was then quenched with 1M ethanolamine (Amine Coupling Kit II, Cat #ACK-001-025, Sierra Sensors). His-tagged recombinant c-Jun was then bound to the tips. The peptides were tested at a series of 2-fold dilutions including a buffer blank. The binding of full-length recombinant CAPER was also tested. Association and dissociation steps were performed for 900s each in 1×HBS-EP+ buffer (cat #BR100669, GE Healthcare Lifesciences, Pittsburgh, PA) supplemented with 450 mM NaCl (Sigma). The background was subtracted from each run and kinetics data was analyzed using ForteBio's Data Analysis Software version 10.0.3.1 using a 1:1 model.

c-Jun [12] = target: T3, c-Jun; test: BLI competition assay: full-length CAPER binding to peptide-saturated c-Jun; conditions: c-Jun saturated with peptide at 10x KD; compared to CAPER binding without peptide
Procedure: Competition assays were determined using BLI on the Octet HTX system (Pall ForteBio, Fremont, CA). Amine Reactive 2nd Generation biosensors (cat #18-5092, Pall ForteBio) were activated with 1-Ethyl-3-[3-dimethylaminopropyl] carbodiimide hydrochloride and N-hydroxysulfosuccinimide (EDC/NHS) (Amine Coupling Kit II, Cat #ACK-001-025, Sierra Sensors, Billerica, MA) and conjugated with an anti-his tag antibody. The reaction was then quenched with 1M ethanolamine (Amine Coupling Kit II, Cat #ACK-001-025, Sierra Sensors). Recombinant c-Jun containing a his-tag was then bound to the tips. The peptides were allowed to saturate the receptor at a concentration of 10× the KD of each peptide. After receptor saturation binding of full-length CAPER to the receptor was measured and the signal was compared back to full-length CAPER binding to the receptor in the absence of the peptide. Binding steps were performed for 900s each in 1× HBS-EP+ buffer (cat #BR100669, GE Healthcare Lifesciences, Pittsburgh, PA) supplemented with 450 mM NaCl (Sigma). The background was subtracted from each run and the signal was represented as a % inhibition compared to full-length CAPER binding in the absence of the peptide.

[13] = his-tagged c-Jun on anti-his tips

Molecule	koff (Estrogen Receptor α) [s⁻¹]	kon (Estrogen Receptor α) [M⁻¹ s⁻¹]	Cell number (MCF7 cells [1])	Binding of full-length recombinant CAPER to ERα (ERα)	Effect on cell cycle (BT549 cells [2])	Effect on cell cycle (MDA-MB-231 cells [3])	Early apoptotic and apoptotic dead cells (MCF7 cells [4])	Live cells (MCF7 cells [4])	Apoptotic cells (MCF10A cells [5])	Cell number (BT549 cells [6])	Cell count (MCF10A cells [7])	Cell number (MDA-MB-231 cells [8])	Early apoptotic and apoptotic dead cells (BT549 cells [9])	Live cells (BT549 cells [9])	Early apoptotic and apoptotic dead cells (MDA-MB-231 cells [10])	Live cells (MDA-MB-231 cells [10])	koff (c-Jun [11]) [s⁻¹]	kon (c-Jun [11]) [M⁻¹ s⁻¹]	KD, binding to c-Jun (c-Jun [11]; [13])	further results
Biotin-RLQLMARLAEGTGLQIPPAAQQALQMSGSLAFGAVADLQTRLSQQ (N-terminus assumed) [CAPER peptide HCC1.3]	0.000115	25400	significant decrease	alter the binding	no effect	no effect	significant increase	significant decrease	no significant change	significant decrease	no significant change	significant decrease	significant increase	significant decrease	significant increase	significant decrease	0.000337	37900		
Biotin-RLQLMARLAEGTGLQIPPAAQQALQMSGSLAFGAVAEFSFVIDLQ (N-terminus assumed) [CAPER peptide HCC1.4]	0.00172	57100	significant decrease	alter the binding	no effect	no effect	significant increase	significant decrease	no significant change	significant decrease	no significant change	significant decrease	significant increase	significant decrease	significant increase	significant decrease	0.00098	38300		
VGDALQGLRLFSTQASIGAQMEQLAAQPLRAGQMLQLAQASPLRT [CAPER scrambled peptide, scrambled control peptide, reference compound]																			could not be determined	Inhibition of full-length recombinant CAPER binding to c-Jun (c-Jun [12]): no significant change
YGRKKRRQRRR [TAT only control, reference compound]																			could not be determined	
Recombinant Full-Length CAPER HCC1.3: full-length recombinant CAPER (R&D Systems), isoform HCC1.3 (protein) MADDIDIEAMLEAPYKKDENKLSSANGHEERSKKRKKSKSRSRSHERKRSKSKERKRSRDRERKKSKSRERKRSRSKERRRSRSRSRDRRFRGRYRSPYSGPKFNSAIRGKIGLPHSIKLSRRRSRSKSPFRKDKSPVREPIDNLTPEERDARTVFCMQLAARIRPRDLEEFFSTVGKVRDVRMISDRNSRRSKGIAYVEFVDVSSVPLAIGLTGQRVLGVPIIVQASQAEKNRAAAMANNLQKGSAGPMRLYVGSLHFNITEDMLRGIFEPFGRIESIQLMMDSETGRSKGYGFITFSDSECAKKALEQLNGFELAGRPMKVGHVTERTDASSASSFLDSDELERTGIDLGTTGRLQLMARLAEGTGLQIPPAAQQALQMSGSLAFGAVADLQTRLSQQTEASALAAAASVQPLATQCFQLSNMFNPQTEEEVGWDTEIKDDVIEECNKHGGVIHIYVDKNSAQGNVYVKCPSIAAAIAAVNALHGRWFAGKMITAAYVPLPTYHNLFPDSMTATQLLVPSRR																				K off, binding to Estrogen Receptor α (Estrogen Receptor α): 2.34e-05 s⁻¹; K on, binding to Estrogen Receptor α (Estrogen Receptor α): 937000 M⁻¹ s⁻¹; K off, binding to c-Jun (c-Jun [11]): 5.66e-05 s⁻¹; K on, binding to c-Jun (c-Jun [11]): 312000 M⁻¹ s⁻¹; Kd (c-Jun [11]; [13]): 0.18 nM

— patent US12201671B2, “Polypeptides for treatment of cancer” (Saint Joseph's University, priority 2019, dated 2025)
